Legend:
PEPCK promoter = test: PEPCK promoter-luciferase reporter assay in Fao hepatoma cells; assay type: cell-based, rat
Procedure: (§1) NIH 3T3 or Fao hepatoma cells were cultured in 10% FBS-RPMI and transfected at 70-90% confluency using Fugene 6 (Roche). The ratio of DNA:Fugene was 1:2. Culture medium was changed after 24 hours. Cells were collected 48 hours after transfection and β-galactosidase and luciferase assays were performed. Transfections were performed in duplicate and repeated at least twice.
The ability of PGC-1 to activate the PEPCK-promoter (using a luciferase reporter gene) in hepatoma cells was examined. Fao rat hepatoma cells were maintained in 10% FBS-RPMI and transfected in a 6 well format with 200 ng of pPL32-PEPCK-luciferase (or pGL3-PEPCK-luciferase), 100 ng CMV β-galactosidase, and […] of pCMV or pCMV-PGC-1 per well. Cells were harvested for luciferase assays 48 hours after transfection, and the readings were normalized by β-galactosidase activity. […] In the transient transfection assays described above, PGC-1 activated the wild-type PEPCK promoter-reporter gene by approximately 10-fold (FIG. 4).
To identify the regulatory elements mediating the effect of PGC-1 on this promoter, mutant constructs were utilized in which various regulatory elements within the PEPCK-luciferase reporter construct were substituted by a yeast Gal4 DNA binding element (FIG. 1; Wang, J. C. et al. (1999) Mol. Endocrinol. 13:604-618). […] However, mutation of the AF1 or AF3 site (or both) each reduced the PGC-1-mediated activation by 50-60%; a combination of the AF1-to-Gal4 substitution and additional block mutations in the GR binding sites (GR1, GR2) led to a small but significant further decrease. […] A replacement of the P3 (I) site, an element shared by the cAMP and thyroid hormone response units, by the Gal4 DNA binding element caused a modest (25%) reduction in the PGC-1 mediated activation of the PEPCK reporter. […] It also appears that there are other unidentified regulatory elements on the PEPCK promoter through which PGC-1 can produce a partial activation.
The AF1 and AF3 sites are both DR-1 type sequences that can bind several nuclear receptors. […] The AF3 element has also been associated with COUP-TF binding (Scott et al (1996) supra). […] Vectors encoding the Gal4 DBD, Gal4 DBD-HNF-4α, or Gal4 DBD-COUP-TF fusion proteins (500 ng per well) were cotransfected with the mutant receptors, containing a substitution of a particular element within the Gal4 DBD, to determine whether they can rescue the PGC-1 activity. […] In contrast, cotransfection of a Gal4-COUP-TF construct produced only a partial restoration (approximately 20-30% of that achieved by HNF-4α), and cotransfection of the Gal4 DBD alone had virtually no effect on the PGC-1 mediated activation. Very similar results were obtained at the AF3 site.
The role of the glucocorticoid response elements in the PEPCK promoter was also examined. […] Fao hepatoma cells were transfected as described above for FIG. 4. Dexamethasone (dex, 1 μM final concentration) was added for the final 24 hours.

HNF-4α = target: T1, HNF-4α (Homo sapiens, UniProt P41235); test: Multimerized AF1 reporter assay in NIH 3T3 fibroblasts, HNF-4α; assay type: cell-based; conditions: NIH 3T3, no hormone or ligand added
T1 construct: made in house; host or cells: TNT reticulocyte lysate in vitro transcription/translation (Promega)
T1 sequence (P41235 1-474): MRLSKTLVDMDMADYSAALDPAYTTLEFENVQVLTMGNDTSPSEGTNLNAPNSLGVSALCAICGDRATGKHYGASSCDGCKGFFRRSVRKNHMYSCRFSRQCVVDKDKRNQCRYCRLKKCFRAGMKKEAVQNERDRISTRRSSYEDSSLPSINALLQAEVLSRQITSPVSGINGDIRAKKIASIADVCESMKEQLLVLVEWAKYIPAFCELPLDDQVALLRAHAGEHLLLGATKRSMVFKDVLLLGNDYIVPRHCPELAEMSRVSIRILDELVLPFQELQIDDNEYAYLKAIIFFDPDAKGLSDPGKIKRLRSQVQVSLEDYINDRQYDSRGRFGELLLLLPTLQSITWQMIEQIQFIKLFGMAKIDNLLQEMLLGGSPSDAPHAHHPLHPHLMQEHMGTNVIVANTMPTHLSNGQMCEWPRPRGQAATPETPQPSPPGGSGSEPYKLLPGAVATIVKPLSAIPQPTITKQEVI
Procedure: as §1
(§2) To examine these functional interactions at the AF1 site with intact transcription factors, reporter gene assays were performed using PGC-1, wild-type HNF-4α and COUP-TF proteins, and a multimerized AF1 response element. To avoid interference with endogenous liver factors, these experiments were done in NIH 3T3 fibroblasts. Transfections were done as described above for FIG. 4. Neither HNF-4α, COUP-TF, nor PGC-1 activates these target sequences alone (FIG. 6).

COUP-TF = test: Multimerized AF1 reporter assay in NIH 3T3 fibroblasts, COUP-TF; assay type: cell-based
Procedure: as §1, §2

G6 Pase promoter = test: G6 Pase promoter-luciferase reporter in SV40 transformed hepatocytes; assay type: cell-based
Procedure: PGC-1 and/or HNF-4α were cotransfected into SV40 transformed hepatocytes, and the ability to coactivate the glucose-6-phosphatase (G6 Pase) promoter was determined using a luciferase reporter gene. Experiments were performed in duplicate.

[1] = test system: gluconeogenic, ketogenic, and beta-oxidation genes; test: Gene induction in control (floxed) or HNF-4α null primary hepatocytes; assay type: cell-based; conditions: presence and absence of HNF-4α
Text: The ability of PGC-1 to induce mRNA expression of gluconeogenic, ketogenic, and beta-oxidation genes was examined in cells lacking HNF-4α. Control (floxed) or HNF-4α null cells (primary hepatocytes) were infected with adenoviruses containing GFP (control) or PGC-1 and were either untreated, serum-starved, or treated with dexamethasone and cAMP.

FKHR [2] = test: 3×IRS promoter-luciferase reporter, FKHR coactivation; assay type: cell-based; conditions: PGC-1 cotransfected with wild-type or mutant FKHR
FKHR [3] = test: G6 Pase promoter-reporter, FKHR coactivation; assay type: cell-based; conditions: PGC-1 cotransfected with FKHR
[4] = test system: PGC-1 protein, glucose-6-phosphatase and PEPCK mRNA; test: Adenovirus infusion in Wistar rats, liver immunoblot and Northern; assay type: in vivo; conditions: rat liver, adenoviral PGC-1
Procedure: Male Wistar rats (Charles River) were fed with standard laboratory food and weighed 300-350 g at the time of the studies. Animals were anesthetized by injection of 0.1 ml per 100 g body mass of a solution containing 25 mg/ml of xylazine (Phoenix Scientific) and 0.5 mg/ml of acepromazine (Fermenta Animal Health). CMV-GFP and CMV-PGC-1 adenoviruses were purified by CsCl gradient centrifugation as described in Becker, T. et al. (1994) Methods Cell Biol. 43:161-189. Pure recombinant virus (1×10^12 plaque forming units), suspended in 0.5 ml of phosphate buffered saline (PBS), was injected into anesthetized rats through the tail vein. Animals were allowed to recover and were fed standard food ad libitum. Five days after adenovirus infusion, tail vein blood was collected at 14:00 for measurement of glucose concentration, using a β-glucose analyzer (HemoCue AB). After the measurement, animals were sacrificed. Blood samples were collected from the heart, centrifuged at 1300 g for 15 minutes at 4° C. in 15 ml centrifuge tubes containing 50 μl of 0.4 M EDTA, and stored at −20° C. before measurement of insulin concentrations with a rat insulin specific radioimmunoassay kit (Linco Research). Liver samples were collected, snap frozen in liquid nitrogen, and stored at −80° C. Aliquots of frozen liver samples were processed for northern blot or immunoblot analysis. […]

FKHR [5] = target: T2, FKHR (Homo sapiens, UniProt Q12778); test: In vitro interaction with in vitro translated FKHR; assay type: binding; conditions: GST fusion constructs
T2 construct: made in house; host or cells: in vitro translation
T2 sequence (Q12778 whole entry, species assumed, the tested form may be a part): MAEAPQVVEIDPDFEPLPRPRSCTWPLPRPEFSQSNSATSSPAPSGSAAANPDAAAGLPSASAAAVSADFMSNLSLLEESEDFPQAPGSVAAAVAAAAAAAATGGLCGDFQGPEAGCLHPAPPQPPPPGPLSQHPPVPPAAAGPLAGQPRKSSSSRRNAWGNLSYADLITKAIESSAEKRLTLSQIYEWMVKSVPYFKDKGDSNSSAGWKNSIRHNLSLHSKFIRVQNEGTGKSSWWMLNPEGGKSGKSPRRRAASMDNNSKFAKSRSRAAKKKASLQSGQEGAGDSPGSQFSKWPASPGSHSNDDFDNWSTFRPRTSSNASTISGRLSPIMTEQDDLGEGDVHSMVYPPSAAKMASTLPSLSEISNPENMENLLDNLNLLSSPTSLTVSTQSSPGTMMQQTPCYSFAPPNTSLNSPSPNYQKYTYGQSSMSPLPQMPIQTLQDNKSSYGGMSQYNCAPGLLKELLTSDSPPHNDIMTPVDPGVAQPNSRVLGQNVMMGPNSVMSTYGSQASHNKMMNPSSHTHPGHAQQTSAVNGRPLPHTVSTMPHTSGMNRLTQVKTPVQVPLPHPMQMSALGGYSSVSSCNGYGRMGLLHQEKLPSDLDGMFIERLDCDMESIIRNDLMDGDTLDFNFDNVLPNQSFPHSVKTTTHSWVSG

PGC-1: coactivator of nuclear receptors, expressed from transfected pCMV-PGC-1 or from adenovirus
activation of wild-type PEPCK promoter-reporter gene (PEPCK promoter; Fao cells, 1 mg pCMV-PGC-1 per well, 48 hours): approximately 10 fold
reduction in PGC-1 mediated activation of the PEPCK reporter (PEPCK promoter; P3 (I) site replaced by Gal4 DNA binding element): 25%
coactivation of PEPCK promoter through the glucocorticoid receptor (PEPCK promoter; dexamethasone 1 μM for the final 24 hours): in a ligand dependant manner
magnitude of PGC-1 activation (PEPCK promoter; mutation in the AF2 or the CRE site): did not produce an appreciable effect
reduction of PGC-1-mediated activation (PEPCK promoter; mutation of the AF1 or AF3 site (or both)): 50-60%
coactivation of HNF-4α on multimerized AF1 response element (HNF-4α): dramatically coactivates
coactivation of COUP-TF on multimerized AF1 response element (COUP-TF): no ability to coactivate
activation of G6 Pase promoter-luciferase reporter (G6 Pase promoter; cotransfected with HNF-4α): strong coactivation
activation of G6 Pase promoter-luciferase reporter (G6 Pase promoter; transfected alone): no activation
induction of gluconeogenic genes glucose-6-phosphatase and PEPCK [1]: in the presence, but not the absence, of HNF-4α
activation of 3×IRS promoter-luciferase reporter (FKHR [2]): can coactivate FKHR
coactivation on wild type G6 Pase promoter-reporter (FKHR [3]): coactivated FKHR
liver PEPCK mRNA (Northern) [4]: increased expression
liver mRNA for glucose-6-phosphatase (Northern) [4]: dramatic and uniform elevation

B1: GST-PGC-1 (amino acids 1-190): GST fusion protein of amino acids 1-190 of PGC-1 (SEQ ID NO:2) (protein)
chain: MAWDMCSQDSVWSDIECAALVGEDQPLCPDLPELDLSELDVNDLDTDSFLGGLKWCSDQSEIISNQYNNEPANIFEKIDEENEANLLAVLTETLDSLPVDEDGLPSFDALTDGAVTTDNEASPSSMPDGTPPPQEAEEPSLLKKLLLAPANTQLSYNECSGLSTQNHAANHTHRIRTNPAIVKTENSWSN
modifications: left off: a dimerising Fc or GST
physical interaction with FKHR (FKHR [5]): not

Source: patent US7371529B2, “Methods and compositions for modulating gluconeogenesis using PGC-1” (Dana-Farber Cancer Institute, Inc., priority 2001, dated 2008)
